The conditions of series [1]: oral administration; cited from earlier work.
Series [2] in a line: Naloxone infusion by hollow microneedle array with resulting PK profile (serum naloxone by LCMSMS). Particulars: female, pig, other: intradermal infusion by hollow microneedle device.

Structures are written as SMILES. Where a name gives a salt, the structure may show the parent alone.

Take `C=CCN1CC[C@]23c4c5ccc(O)c4O[C@H]2C(=O)CC[C@@]3(O)[C@H]1C5` [naloxone, naloxone hydrochloride]: the “bioavailability when administered orally” value in series [1] is reported as “about 2%”. Besides, the bioavailability in series [2] came to 107%.

(Values after patent US20110213335A1, “HOLLOW MICRONEEDLE ARRAY AND METHOD” (priority 2008, published 2011).)
